Molecules are shown by their SMILES. Numbering of substitutions follows the chain as printed.

Consider nine compounds from patent US20210186947A1, “TOMM6-INTERACTING EXTRACTS AND COMPOUNDS FOR USE IN THE TREATMENT AND PROPHYLAXIS OF NERVOUS SYSTEM DISEASES, ATHEROSCLEROSIS, HEPATITIS B INFECTION AND HUMAN PAPILLOMA VIRUS (HPV) INFECTION” (ETH ZURICH, priority 2018, published 2021).

Series [1] addresses T1, TOMM6 (Homo sapiens, UniProt Q96B49).
T1 sequence (Q96B49 1-74): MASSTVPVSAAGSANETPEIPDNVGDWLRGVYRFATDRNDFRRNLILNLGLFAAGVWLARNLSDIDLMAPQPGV
Put plainly: Screening for TOMM6-inducing compounds in HEK cells, TOMM6 immunoblot. Type of series: cell-based. The arrangement: endogenous in cells; host or cells: HEK cells. As to conditions: final concentration 20 microM, 60 h. As for the experimental part:
For immunoblot detection of (hippocampal or HEK cell) proteins, e.g. Tomm6/TOMM6 and Atp6v1a/ATP6V1A, (hippocampal) tissue was pulverized under liquid nitrogen, and HEK cell pellets were directly subjected to protein extraction. Proteins were extracted for 30 min at 4° C. with solubilization buffer (1% sodium deoxycholate, 0.1% SDS, 0.1% NP40, 5 mM EDTA, 50 mM Tris, pH 8.0) supplemented with protease/phosphatase inhibitors (Cat. No. P8349, and/or PPC1010, Sigma-Aldrich, St. Louis, Mo., USA). Particulate material was removed by centrifugation at 50 000×g for 20 min at 4° C. Solubilized proteins were concentrated and delipidated by precipitation with ice-cold acetone/methanol (12:2, final concentration 83%) for 90 min at 4° C. The pellet was dissolved in SDS-sample buffer supplemented with 2% SDS, 0.1 M DTT (or 5% mercaptoethanol), and 6 M urea for 90 min at room temperature. Proteins were stored at a concentration of 0.5 mg-1 mg/ml at −70° C. for further use. Immunoblot detection of proteins was performed with affinity-purified antibodies or F(ab)2 fragments of the respective antibodies after separation of proteins by urea-containing SDS-PAGE (7.5%-10%) under reducing conditions and electrophoretic protein transfer to PVDF membranes in a tank transfer cell (Mini Trans-Blot cell, Bio-Rad GmbH, Munchen, Germany). Bound antibodies were visualized with F(ab)2 fragments of enzyme-coupled secondary antibodies (Dianova GmbH, Hamburg, Germany) pre-absorbed to mouse serum proteins, or by enzyme-coupled protein A (EMD Millipore, Merck KGaA, Darmstadt, Germany) as applicable, and followed by enhanced chemiluminescent detection (ECL Plus, and/or ECL Prime, Amersham, GE Healthcare Life Sciences, Glattbrugg, Switzerland).
TOMM6-inducing compounds were searched for and a screening system was established in HEK cells. HEK cells were cultured in the absence and presence of a test compound at a final concentration of 20 microM. Cells were harvested, proteins were extracted and TOMM6 protein levels were determined in immunoblot with TOMM6-specific antibodies. […] The following TOMM6-interacting (inducing) compounds were identified: Compound-3: N-[(3-chlorophenyl)methyl]-2-(3-piperidyl)oxazole-4-carboxamide; Compound-4: N-[(3,4-dichlorophenyl)methyl]-2-(3-piperidyl)oxazole-4-carboxamide; Compound-5: 2-[(1S)-1-amino-2-methyl-butyl]-N-[(3,4-dichlorophenyl)methyl]oxazole-4-carboxamide; Compound-6: 2-[(1S)-1-amino-2-methyl-propyl]-N-[(3,4-dichlorophenyl)methyl]oxazole-4-carboxamide; Compound-7: 6-(aminomethyl)-4-(4-chlorophenyl)-2-methyl-pyridine-3-carboxamide; Compound-8: 4-(2,4-dichlorophenyl)-6-[(1,3-dioxoisoindolin-2-yl)methyl]-2-methyl-pyridine-3-carboxamide; Compound-9: 4-(4-chlorophenyl)-6-[(1,3-dioxoisoindolin-2-yl)methyl]-2-methyl-pyridine-3-carboxamide; and Compound-10: 4-(4-chlorophenyl)-6-(hydroxymethyl)-2-methyl-pyridine-3-carboxamide).
In general terms: Immunoblotting shows a protein as a band on a membrane.

The test system of series [2] is hyperphosphorylated PHF-Tau. Put plainly: Hippocampal hyperphosphorylated PHF-Tau in Tg2576 mice subjected to CUMS, binding assay with [125I]-labeled AT8 antibody. Format: in vivo. Particulars: 15 months-old Tg2576 mice, 3 months of CUMS, treated during CUMS; compounds 10 mg/kg/d.
The subject of series [3] is hippocampal neuronal cell bodies (NeuN). Put plainly: Hippocampal neuronal loss in Tg2576 mice subjected to CUMS, binding assay with [125I]-labeled anti-NeuN antibody. Particulars: 15 months-old Tg2576 mice, 3 months of CUMS, treated during CUMS; compounds 10 mg/kg/d. Format: in vivo.
Series [4] deals with T2, Tomm6 (Mus musculus, UniProt Q9CQN3).
T2 construct: hippocampi were isolated from 5-10 aged Tg2576 mice, pulverized under liquid nitrogen and solubilized; from tissue; host or cells: hippocampus of Tg2576 mice
T2 sequence (Q9CQN3 1-74): T1 sequence (Q96B49 1-74) with T5G, P7T, N15S, T17A, P18S, I20V, Y32F
Nature of the series: Immunoblot detection of hippocampal Tomm6 protein in treated Tg2576 mice. As to conditions: Tg2576 AD mice subjected to the CUMS protocol, treated during CUMS (10 mg/kg/d). Type of series: in vivo.

Series [5] can be described thus: Measurement of serum level in dogs by HPLC. Type of series: in vivo, German shepherd dogs. As to conditions: for peak serum concentration: t=1 h. As for the experimental part:
(§1) Serum concentrations of alizarin were determined with serum isolated from the blood of male and female German shepherd dogs (age: 8-9 months) taken at different time points (0.5 h, 1 h, 2 h, 4 h, 6 h, 8 h, 24 h) after oral intake of the indicated doses for 4 weeks. In addition, serum concentrations of alizarin (Compound-1) were determined in male and female Sprague Dawley rats (body weight: 200-250 g) treated for 1 month and/or three months by oral gavage of alizarin at a once daily dose of 100 mg/kg, 50 mg/kg, 25 mg/kg and 12.5 mg/kg. Serum proteins were removed by acetonitrile precipitation, and alizarin was extracted by chloroform before separation on an HPLC-C18 column (Poroshell 120 EC-C18, 3.0×50 mm, Agilent) with an HPLC system (Agilent 1100 Series) and detection at OD245 nm. For quantitative determination of Compound-7 and Compound-10F in rat and dog serum, serum proteins were also removed by acetonitrile precipitation before HPLC analysis as detailed above and detection at OD254 nm.

Series [6] in a line: Measurement of serum level in rats by HPLC. Format: in vivo, Sprague Dawley rats. As for the experimental part:
as §1

Series [7] can be described thus: Tolerability / toxicity in dogs during four weeks of oral treatment. Format: in vivo. Particulars: up to an oral dose of 12.5 mg/kg/day.
Series [8] is described as follows: Sub-chronic oral toxicity in rats. Type of series: in vivo, Sprague Dawley rats. As for the experimental part:
Sub-chronic toxicity studies in dogs (German Shepherd dogs) and rats (Sprague Dawley rats) were performed by the Center of Applied Analytical and Veterinary Studies, Cairo, Egypt.
The oral toxicity of alizarin (Compound-1) in rats was determined in a sub-chronic toxicity study. Rats were treated for 3 months with a once daily oral dose of alizarin of 25 mg/kg/day, 50 mg/kg/day and 100 mg/kg/day. […] The good tolerability of alizarin in rats and dogs is supported by previous observations in humans, which document that long-term treatment for several years with alizarin and alizarin-containing plant extracts is not toxic and was previously used to prevent recurrence of calcium-containing urinary stones (Lorenz et al., Methods Find. Exp. Clin. Pharmacol. 7, 637-643, 1985). Taken together, alizarin has good oral bioavailability and a wide therapeutic window.
Pharmacokinetic data of Compound-7 were determined as another representative TOMM6/Tomm6 inducer with a different chemical structure than alizarin (Compound-1). […] The oral bioavailability of Compound-7 in dogs was much higher than in rats because oral doses of Compound-7 required to achieve equivalent peak serum concentrations were approximately 10-fold higher in rats compared to dogs (FIG. 20B). Again, this observation is in agreement with the equivalent surface area dosage rule, according to which rats and mice usually require a 10-12-fold higher dose than dogs and humans. […] This second peak could reflect enterohepatic recirculation of Compound-7.

A short description of series [9]: Toxic adverse effects during 3 months of treatment of Tg2576 AD mice. Type of series: in vivo. Particulars: daily dose of 10 mg/kg.
Series [10] deals with T1, TOMM6. Nature of the series: Tomm6 induction, test not described.
Setting [11] is: rats, repeated once daily oral intake of 20 mg/kg/d.

Consider `O=C(NCc1cccc(Cl)c1)c1coc(C2CCCNC2)n1` (stereo not shown) [Compound-3, N-[(3-chlorophenyl)methyl]-2-(3-piperidyl)oxazole-4-carboxamide], for which the “TOMM6 protein level in HEK cells” value on TOMM6 [1] is reported as “inducers of TOMM6”.
For `O=C(NCc1ccc(Cl)c(Cl)c1)c1coc(C2CCCNC2)n1` (stereo not shown) [Compound-4, N-[(3,4-dichlorophenyl)methyl]-2-(3-piperidyl)oxazole-4-carboxamide], in series [2], the “hippocampal content of hyperphosphorylated PHF-Tau” value (“hippocampal content” below) is on record as “decreased hippocampal PHF tau hyperphosphorylation”. For the same compound, the hippocampal neuronal loss result in [3] is recorded as “retarded overt neuronal loss”. The “hippocampal Tomm6 protein content” value at Tomm6 [4] was “strong increase in hippocampal Tomm6 protein content”. In addition, the “TOMM6 protein level in HEK cells” value on TOMM6 [1] was “inducers of TOMM6”.
Turning to `CCC(C)[C@H](N)c1nc(C(=O)NCc2ccc(Cl)c(Cl)c2)co1` (stereo partly drawn) [Compound-5, 2-[(1S)-1-amino-2-methyl-butyl]-N-[(3,4-dichlorophenyl)methyl]oxazole-4-carboxamide], the “TOMM6 protein level in HEK cells” value on TOMM6 [1] was “inducers of TOMM6”.
On the same count and under the same terms, then `CC(C)[C@H](N)c1nc(C(=O)NCc2ccc(Cl)c(Cl)c2)co1` [Compound-6, 2-[(1S)-1-amino-2-methyl-propyl]-N-[(3,4-dichlorophenyl)methyl]oxazole-4-carboxamide], with “inducers of TOMM6”.
As for `Cc1nc(CN)cc(-c2ccc(Cl)cc2)c1C(N)=O` [Compound-7, 6-(aminomethyl)-4-(4-chlorophenyl)-2-methyl-pyridine-3-carboxamide], the “hippocampal content” value in [2] was “decreased hippocampal PHF tau hyperphosphorylation”. Besides, the hippocampal neuronal loss entry in [3] is listed as “retarded overt neuronal loss”. For the same compound, the “hippocampal Tomm6 protein content” value at Tomm6 [4] is recorded as “strong increase in hippocampal Tomm6 protein content”. Also, the “oral bioavailability / serum concentrations after oral intake” value in [5] and in series [6] (rats) was “has oral bioavailability” throughout. For the same compound, the peak serum concentration in [5] (repeated once daily oral dose of 2 mg/kg) was 0.59 µg/mL; in series [5] (repeated once daily oral dosing of 5 mg/kg), 1.56 µg/mL; in series [5] (repeated once daily oral dosing of 12.5 mg/kg) it was 3.96 µg/mL. The “oral doses required to achieve equivalent peak serum concentrations, higher in rats compared to dogs” value in [6] (rats vs dogs) was “approximately 10 fold”. In addition, in series [6] (setting [11]), the “time of peak serum concentration” value is listed as 1 h. Also, the “time of second serum peak” value in series [6] (setting [11]) is given as 3 h. Moreover, the toxic side effects result is listed as “did not show any detectable toxic side effects” in series [7] and “did not show any detectable toxic side effects” in [8] (rats, up to an oral dose of 50 mg/kg/day, four weeks). Besides, in [8] (rats, daily oral dose of 100 mg/kg/d), the daily food intake result is “slightly decreased daily food intake”. In series [8] (therapeutic dose 10 mg/kg once daily in rodent models), the “difference between therapeutic and toxic doses (therapeutic index)” value is “approximately 10 fold”. Further, on TOMM6 [1], the “TOMM6 protein level in HEK cells” value is “inducers of TOMM6”.
`Cc1nc(CN2C(=O)c3ccccc3C2=O)cc(-c2ccc(Cl)cc2Cl)c1C(N)=O` [Compound-8, 4-(2,4-dichlorophenyl)-6-[(1,3-dioxoisoindolin-2-yl)methyl]-2-methyl-pyridine-3-carboxamide]: the “TOMM6 protein level in HEK cells” value on TOMM6 [1] was “inducers of TOMM6”.
Take `Cc1nc(CN2C(=O)c3ccccc3C2=O)cc(-c2ccc(Cl)cc2)c1C(N)=O` [Compound-9, 4-(4-chlorophenyl)-6-[(1,3-dioxoisoindolin-2-yl)methyl]-2-methyl-pyridine-3-carboxamide]: the “TOMM6 protein level in HEK cells” value at TOMM6 [1] is listed as “inducers of TOMM6”.
Consider `Cc1nc(CO)cc(-c2ccc(Cl)cc2)c1C(N)=O` [Compound-10, 4-(4-chlorophenyl)-6-(hydroxymethyl)-2-methyl-pyridine-3-carboxamide], for which the “hippocampal content” value in series [2] is “significantly inhibited the hippocampal accumulation of hyperphosphorylated PHF tau”. For the same compound, the hippocampal neuronal loss entry in [3] is given as “retarded the CUMS-induced hippocampal neuronal loss”. Moreover, on Tomm6 [4], the “hippocampal Tomm6 protein content” value is reported as “significantly higher”. Further, in series [9], the toxic adverse effects result is “did not show any detectable toxic adverse effects”. Moreover, the “TOMM6 protein level in HEK cells” value at TOMM6 [1] is recorded as “inducers of TOMM6”.
`C[C@@H]1CCO[C@H]2Cn3cc(C(=O)NCc4ccc(F)cc4F)c(=O)c(O)c3C(=O)N12` [dolutegravir]: the Tomm6 induction entry at TOMM6 [10] was “not a Tomm6 inducer”.
